Results: ChEMBL document CHEMBL4043168, “The design and SAR of a novel series of 2-aminopyridine based LRRK2 inhibitors” (Bioorg Med Chem Lett, 2017)

Tests used:
[1] = biological target: T1, Serine/threonine-protein kinase ULK3 (Homo sapiens) (UniProt Q6PHR2); experiment: Inhibition of ULK3 conserved Lys1 (EVVAIKCVAK) in human PBMC at 1 uM; details: pooled result: one value given for 4 cell lines, strains, targets or settings
T1 sequence (whole entry): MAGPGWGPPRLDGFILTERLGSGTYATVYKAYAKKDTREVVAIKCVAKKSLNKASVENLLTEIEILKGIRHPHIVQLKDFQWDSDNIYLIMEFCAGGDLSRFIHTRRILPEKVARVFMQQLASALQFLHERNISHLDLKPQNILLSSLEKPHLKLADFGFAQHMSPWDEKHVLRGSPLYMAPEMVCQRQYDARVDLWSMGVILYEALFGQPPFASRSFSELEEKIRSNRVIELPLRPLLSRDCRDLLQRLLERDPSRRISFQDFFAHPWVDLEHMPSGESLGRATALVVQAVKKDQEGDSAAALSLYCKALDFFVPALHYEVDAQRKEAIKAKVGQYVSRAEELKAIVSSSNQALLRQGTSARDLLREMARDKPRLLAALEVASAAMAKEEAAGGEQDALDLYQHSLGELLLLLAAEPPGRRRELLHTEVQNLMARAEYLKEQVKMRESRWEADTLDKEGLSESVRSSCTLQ

[2] = biological target: Serine/threonine-protein kinase 10 (Homo sapiens) (UniProt O94804); experiment: Inhibition of LOK conserved Lys2 (DLKAGNVLMTLEGDIR) in human PBMC at 1 uM; details: pooled result: one value given for 6 cell lines, strains, targets or settings
Chain of Serine/threonine-protein kinase 10 (Homo sapiens) (O94804 whole entry, looked up): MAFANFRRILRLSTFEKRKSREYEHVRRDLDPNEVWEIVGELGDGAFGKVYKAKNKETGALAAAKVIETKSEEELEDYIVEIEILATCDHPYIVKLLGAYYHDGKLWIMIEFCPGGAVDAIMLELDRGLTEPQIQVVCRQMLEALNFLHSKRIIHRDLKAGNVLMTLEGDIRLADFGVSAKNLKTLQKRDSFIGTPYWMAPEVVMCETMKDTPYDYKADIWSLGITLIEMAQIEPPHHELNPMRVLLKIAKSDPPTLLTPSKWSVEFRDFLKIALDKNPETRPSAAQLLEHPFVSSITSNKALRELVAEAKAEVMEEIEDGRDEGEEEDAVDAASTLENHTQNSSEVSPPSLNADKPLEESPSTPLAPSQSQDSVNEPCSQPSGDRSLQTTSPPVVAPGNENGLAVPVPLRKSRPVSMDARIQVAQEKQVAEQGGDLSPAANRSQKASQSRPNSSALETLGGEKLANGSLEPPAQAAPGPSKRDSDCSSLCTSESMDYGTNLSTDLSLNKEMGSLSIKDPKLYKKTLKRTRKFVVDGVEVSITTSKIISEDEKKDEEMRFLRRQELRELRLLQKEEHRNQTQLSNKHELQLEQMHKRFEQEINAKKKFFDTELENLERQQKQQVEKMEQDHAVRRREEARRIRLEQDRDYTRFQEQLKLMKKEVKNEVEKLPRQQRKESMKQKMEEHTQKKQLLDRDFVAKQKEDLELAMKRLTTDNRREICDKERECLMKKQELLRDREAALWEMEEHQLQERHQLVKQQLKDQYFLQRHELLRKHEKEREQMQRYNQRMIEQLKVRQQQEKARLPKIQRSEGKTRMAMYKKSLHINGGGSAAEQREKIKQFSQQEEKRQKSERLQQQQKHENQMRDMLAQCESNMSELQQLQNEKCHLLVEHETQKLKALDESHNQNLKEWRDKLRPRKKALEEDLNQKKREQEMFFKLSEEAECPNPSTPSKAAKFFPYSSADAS

[3] = biological target: Interleukin-1 receptor-associated kinase 1 (Homo sapiens) (UniProt P51617); experiment: Inhibition of IRAK1 conserved Lys2 (AIQFLHQDSPSLIHGDIKSSNVLLDER) in human PBMC at 1 uM
Chain of Interleukin-1 receptor-associated kinase 1 (Homo sapiens) (P51617 whole entry, looked up): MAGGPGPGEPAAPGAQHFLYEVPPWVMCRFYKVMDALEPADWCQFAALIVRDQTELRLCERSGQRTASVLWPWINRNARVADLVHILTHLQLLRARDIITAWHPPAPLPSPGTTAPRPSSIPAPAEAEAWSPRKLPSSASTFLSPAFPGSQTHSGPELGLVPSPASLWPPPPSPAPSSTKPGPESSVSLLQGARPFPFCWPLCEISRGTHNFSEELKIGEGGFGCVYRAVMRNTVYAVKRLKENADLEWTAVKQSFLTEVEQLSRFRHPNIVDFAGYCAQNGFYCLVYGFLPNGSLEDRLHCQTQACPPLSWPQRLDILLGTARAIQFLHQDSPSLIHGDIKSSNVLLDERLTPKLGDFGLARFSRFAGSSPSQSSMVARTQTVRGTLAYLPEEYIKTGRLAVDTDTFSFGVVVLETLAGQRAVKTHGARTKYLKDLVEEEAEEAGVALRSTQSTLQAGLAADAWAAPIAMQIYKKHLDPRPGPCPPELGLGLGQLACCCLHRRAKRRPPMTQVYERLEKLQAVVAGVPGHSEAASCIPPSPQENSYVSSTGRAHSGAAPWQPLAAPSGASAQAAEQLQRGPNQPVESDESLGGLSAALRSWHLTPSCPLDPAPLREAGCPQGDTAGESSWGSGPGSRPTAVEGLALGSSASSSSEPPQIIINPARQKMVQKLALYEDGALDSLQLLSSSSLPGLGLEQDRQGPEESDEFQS

[4] = biological target: Serine/threonine-protein kinase Nek1 (Homo sapiens) (UniProt Q96PY6); experiment: Inhibition of NEK1 conserved Lys2 (DIKSQNIFLTK) in human PBMC at 1 uM
Chain of Serine/threonine-protein kinase Nek1 (Homo sapiens) (Q96PY6 whole entry): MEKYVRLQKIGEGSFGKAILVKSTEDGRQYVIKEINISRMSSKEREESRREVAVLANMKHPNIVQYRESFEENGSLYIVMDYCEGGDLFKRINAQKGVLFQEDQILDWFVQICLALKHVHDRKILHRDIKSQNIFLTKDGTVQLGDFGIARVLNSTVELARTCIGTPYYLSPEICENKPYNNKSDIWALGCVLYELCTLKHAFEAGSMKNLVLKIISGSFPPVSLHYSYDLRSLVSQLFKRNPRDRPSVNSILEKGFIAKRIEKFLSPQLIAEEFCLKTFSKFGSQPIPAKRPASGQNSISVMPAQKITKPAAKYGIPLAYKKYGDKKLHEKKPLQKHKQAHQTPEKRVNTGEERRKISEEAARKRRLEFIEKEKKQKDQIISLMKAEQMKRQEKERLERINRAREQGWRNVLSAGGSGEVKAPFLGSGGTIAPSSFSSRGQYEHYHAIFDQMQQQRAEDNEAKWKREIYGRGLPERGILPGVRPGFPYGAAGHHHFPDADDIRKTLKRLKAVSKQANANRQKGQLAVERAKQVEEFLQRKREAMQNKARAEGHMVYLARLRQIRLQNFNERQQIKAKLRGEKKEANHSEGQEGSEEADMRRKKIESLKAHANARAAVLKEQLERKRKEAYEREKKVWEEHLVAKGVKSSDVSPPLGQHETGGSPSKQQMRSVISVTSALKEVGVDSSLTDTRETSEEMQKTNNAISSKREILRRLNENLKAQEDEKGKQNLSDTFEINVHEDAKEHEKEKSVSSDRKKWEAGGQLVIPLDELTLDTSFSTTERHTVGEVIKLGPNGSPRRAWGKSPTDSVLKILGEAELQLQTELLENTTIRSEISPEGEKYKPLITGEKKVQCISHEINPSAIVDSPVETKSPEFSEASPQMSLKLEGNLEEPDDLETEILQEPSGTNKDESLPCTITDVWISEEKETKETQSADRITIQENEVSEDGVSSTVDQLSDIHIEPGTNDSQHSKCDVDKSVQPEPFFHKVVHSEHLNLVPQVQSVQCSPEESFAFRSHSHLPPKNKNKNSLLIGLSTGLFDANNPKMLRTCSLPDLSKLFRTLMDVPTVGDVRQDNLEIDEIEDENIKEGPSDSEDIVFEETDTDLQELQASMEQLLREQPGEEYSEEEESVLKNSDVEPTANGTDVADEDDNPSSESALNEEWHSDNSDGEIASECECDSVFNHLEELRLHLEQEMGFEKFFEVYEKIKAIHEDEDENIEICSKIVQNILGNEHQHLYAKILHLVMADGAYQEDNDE

[5] = biological target: T2, Mitogen-activated protein kinase kinase kinase 6 (Homo sapiens) (UniProt O95382); experiment: Inhibition of MAP3K6 conserved Lys1 (IAIKEIPER) in human PBMC at 1 uM
T2 sequence (whole entry): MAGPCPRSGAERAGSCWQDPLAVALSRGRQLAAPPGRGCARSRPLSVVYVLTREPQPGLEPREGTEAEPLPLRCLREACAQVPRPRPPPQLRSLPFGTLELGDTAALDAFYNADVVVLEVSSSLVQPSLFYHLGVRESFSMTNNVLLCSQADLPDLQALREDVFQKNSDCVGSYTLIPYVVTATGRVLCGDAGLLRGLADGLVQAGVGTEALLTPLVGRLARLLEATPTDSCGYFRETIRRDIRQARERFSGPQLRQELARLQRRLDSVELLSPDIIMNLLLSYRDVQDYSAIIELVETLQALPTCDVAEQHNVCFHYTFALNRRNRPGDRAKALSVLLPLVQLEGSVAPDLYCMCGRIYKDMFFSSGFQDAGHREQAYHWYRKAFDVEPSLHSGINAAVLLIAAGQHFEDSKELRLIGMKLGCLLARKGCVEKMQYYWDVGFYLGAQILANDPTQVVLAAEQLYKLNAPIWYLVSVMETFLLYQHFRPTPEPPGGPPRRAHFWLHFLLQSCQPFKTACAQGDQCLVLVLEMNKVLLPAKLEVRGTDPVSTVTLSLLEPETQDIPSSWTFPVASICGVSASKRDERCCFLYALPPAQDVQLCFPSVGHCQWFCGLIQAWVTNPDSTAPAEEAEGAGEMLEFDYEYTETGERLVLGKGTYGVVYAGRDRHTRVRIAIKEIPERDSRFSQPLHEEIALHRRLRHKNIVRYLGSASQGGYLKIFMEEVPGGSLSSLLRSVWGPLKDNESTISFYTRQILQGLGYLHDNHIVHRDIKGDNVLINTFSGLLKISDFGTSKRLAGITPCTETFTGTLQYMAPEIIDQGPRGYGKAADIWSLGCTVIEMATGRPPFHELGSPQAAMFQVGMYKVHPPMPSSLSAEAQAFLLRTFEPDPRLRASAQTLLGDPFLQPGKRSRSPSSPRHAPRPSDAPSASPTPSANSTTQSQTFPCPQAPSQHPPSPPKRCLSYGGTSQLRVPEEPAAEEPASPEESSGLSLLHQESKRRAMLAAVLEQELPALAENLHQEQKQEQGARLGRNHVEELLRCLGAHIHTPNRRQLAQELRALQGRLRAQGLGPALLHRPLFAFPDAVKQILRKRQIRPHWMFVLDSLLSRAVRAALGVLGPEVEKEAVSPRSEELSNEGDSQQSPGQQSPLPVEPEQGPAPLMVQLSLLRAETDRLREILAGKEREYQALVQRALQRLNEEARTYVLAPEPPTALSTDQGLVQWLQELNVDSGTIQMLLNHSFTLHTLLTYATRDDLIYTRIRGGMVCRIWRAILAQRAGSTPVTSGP

[6] = biological target: Ribosomal protein S6 kinase delta-1 (Homo sapiens) (UniProt Q96S38); experiment: Inhibition of RSKL1 domain1 Protein Kinase Domain (VLGVIDKVLLVMDTR) in human PBMC at 1 uM
Chain of Ribosomal protein S6 kinase delta-1 (Homo sapiens) (Q96S38 whole entry, the tested form may be a part): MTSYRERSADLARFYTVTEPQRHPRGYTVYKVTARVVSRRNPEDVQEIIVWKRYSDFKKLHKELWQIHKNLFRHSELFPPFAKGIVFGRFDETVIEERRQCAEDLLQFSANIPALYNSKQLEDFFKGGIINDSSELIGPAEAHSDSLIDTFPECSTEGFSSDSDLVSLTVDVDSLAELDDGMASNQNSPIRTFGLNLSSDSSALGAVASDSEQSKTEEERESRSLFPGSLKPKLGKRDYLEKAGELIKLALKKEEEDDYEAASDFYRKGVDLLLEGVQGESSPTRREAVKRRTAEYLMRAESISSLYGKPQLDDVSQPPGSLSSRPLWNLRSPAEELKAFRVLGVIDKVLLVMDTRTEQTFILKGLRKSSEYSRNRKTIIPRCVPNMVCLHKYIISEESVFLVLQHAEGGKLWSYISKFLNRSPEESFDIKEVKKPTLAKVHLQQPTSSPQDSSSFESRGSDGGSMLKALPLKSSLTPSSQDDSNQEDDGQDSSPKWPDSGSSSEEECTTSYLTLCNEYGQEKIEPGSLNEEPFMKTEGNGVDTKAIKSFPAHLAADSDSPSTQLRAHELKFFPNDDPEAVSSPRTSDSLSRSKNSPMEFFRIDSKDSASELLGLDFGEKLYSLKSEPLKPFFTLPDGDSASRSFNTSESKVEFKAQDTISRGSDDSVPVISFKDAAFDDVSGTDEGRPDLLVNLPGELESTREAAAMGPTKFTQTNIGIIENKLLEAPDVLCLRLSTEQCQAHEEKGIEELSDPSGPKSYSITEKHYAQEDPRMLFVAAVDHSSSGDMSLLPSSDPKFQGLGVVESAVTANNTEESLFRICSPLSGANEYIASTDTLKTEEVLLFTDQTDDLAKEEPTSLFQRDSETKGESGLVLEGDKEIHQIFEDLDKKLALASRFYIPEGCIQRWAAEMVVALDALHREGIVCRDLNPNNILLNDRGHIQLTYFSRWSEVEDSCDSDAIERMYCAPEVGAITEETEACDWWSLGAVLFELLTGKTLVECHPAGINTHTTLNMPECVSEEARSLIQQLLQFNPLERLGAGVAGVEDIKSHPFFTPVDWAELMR

[7] = biological target: Dual specificity mitogen-activated protein kinase kinase 7 (Homo sapiens) (UniProt O14733); experiment: Inhibition of MAP2K7 conserved Lys2 (DVKPSNILLDER) in human PBMC at 0.1 uM
Chain of Dual specificity mitogen-activated protein kinase kinase 7 (Homo sapiens) (O14733 whole entry): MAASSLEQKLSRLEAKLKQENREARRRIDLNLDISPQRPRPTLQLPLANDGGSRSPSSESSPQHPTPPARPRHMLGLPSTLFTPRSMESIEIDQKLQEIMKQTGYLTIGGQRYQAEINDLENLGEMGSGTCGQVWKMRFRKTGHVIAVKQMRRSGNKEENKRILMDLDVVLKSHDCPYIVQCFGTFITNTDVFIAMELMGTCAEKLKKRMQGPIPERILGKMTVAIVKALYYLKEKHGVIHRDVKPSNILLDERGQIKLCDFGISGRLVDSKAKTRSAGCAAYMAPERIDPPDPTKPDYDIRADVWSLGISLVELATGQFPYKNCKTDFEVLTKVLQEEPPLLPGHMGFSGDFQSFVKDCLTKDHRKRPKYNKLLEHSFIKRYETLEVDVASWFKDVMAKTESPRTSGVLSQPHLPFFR

In the case of CC(C)n1cc(-c2cc(-c3ccc(CN4CCOCC4)cc3)cnc2N)nn1, the inhibition [1] was 23.5%, the inhibition [2] was 14.5% and the inhibition [3] was 17.3%. The inhibition [4] was 10%, the inhibition [5] was -3.3% and the inhibition [6] was 4.7%. The inhibition [7] was 31.6%.
